# Laboratory results published in ChEMBL document CHEMBL4371079, “Improved synthesis, resolution, absolute configuration determination and biological evaluation of HLM006474 enantiomers” (Bioorg Med Chem Lett, 2019).
# Calls of active or inactive are those of the source. The calls are words filed in the database; no cut-off is given here.
# Molecular target: Transcription factor E2F1 (Homo sapiens) (UniProt Q01094)
# Assay: Inhibition of E2F1 transcriptional activity (unknown origin) expressed in HEK293 cells at 10 uM measured after 48 hrs by luciferase reporter gene assay
# Assay type: cell-based
# Transcription factor E2F1 (Homo sapiens), sequence (Q01094 whole entry): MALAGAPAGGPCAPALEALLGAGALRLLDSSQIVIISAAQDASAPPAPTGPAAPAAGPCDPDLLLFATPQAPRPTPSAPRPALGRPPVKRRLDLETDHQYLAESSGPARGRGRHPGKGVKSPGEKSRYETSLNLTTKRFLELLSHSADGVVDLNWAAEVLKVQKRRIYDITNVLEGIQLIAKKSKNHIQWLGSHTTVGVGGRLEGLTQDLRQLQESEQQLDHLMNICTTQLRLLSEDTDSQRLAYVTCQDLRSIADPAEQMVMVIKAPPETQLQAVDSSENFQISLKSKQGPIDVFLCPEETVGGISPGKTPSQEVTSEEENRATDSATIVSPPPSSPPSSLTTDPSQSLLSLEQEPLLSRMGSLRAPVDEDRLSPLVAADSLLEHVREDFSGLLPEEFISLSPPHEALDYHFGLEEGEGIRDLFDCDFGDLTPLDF
row,inhibition,Compound
1,inactive,CCOc1ccc([C@H](Nc2ccccn2)c2ccc3ccc(C)nc3c2O)cc1C
2,Active,CCOc1ccc([C@@H](Nc2ccccn2)c2ccc3ccc(C)nc3c2O)cc1C
3,Active,CCOc1ccc(C(Nc2ccccn2)c2ccc3ccc(C)nc3c2O)cc1C (racemic)
